Reference: paper PMC11501026, “L-Arginine and asymmetric dimethylarginine (ADMA) transport across the mouse blood-brain and blood-CSF barriers: Evidence of saturable transport at both interfaces and CNS to blood efflux” (PLOS ONE, 2024)
Counter-ions that a name gives are not always drawn.

Columns and labels:
[1] = cross-inhibition, in situ perfusion: [^3H]-arginine with 0.5–500 μM unlabelled ADMA; type: in vivo, mouse; settings: male, mouse, 10 mins, Balb/c ♂, 5ml/min
Procedure: Self-inhibition experiments were also performed. […] Cross-competition experiments were also performed.
The percentage change in the RTissue uptake values achieved in the absence or presence of an unlabelled inhibitor can be calculated by means of Eq 4.
%change=RTissue−RInhibition/RTissue×100 Eq 4
We define RInhibition as the RTissue uptake in the presence of an inhibitor in the artificial plasma.
A decrease in the uptake of radiolabelled solute in the presence of unlabelled inhibitor is indicative of a saturable influx transport system. Conversely, an increase in the uptake of radiolabelled solute in the presence of unlabelled inhibitor is indicative of a saturable efflux transport system.
Concentrations of ADMA were specifically selected to mimic plasma concentrations under normal conditions (0.5 μM), pathophysiological conditions (3.0 μM), and then supraphysiological concentrations (10, 100 and 500 μM).

eNOS = settings: read-out: inhibition constant (Ki); cited from earlier work

Row | Structure (SMILES) | Kp at 10 min ([1]; BALB/c, other: in situ brain perfusion with artificial plasma, with unlabelled ADMA 500 µM, [3H] Arginine and [14C] Sucrose uptake, pellet, + 500µM un-labelled ADMA, mean) | Kp at 10 min ([1]; BALB/c, thalamus, other: in situ brain perfusion with artificial plasma, with unlabelled ADMA 500 µM, [3H] Arginine and [14C] Sucrose uptake, thalamus, + 500µM un-labelled ADMA, mean) | Kp at 10 min ([1]; Balb/c, CSF, other: in situ brain perfusion, with unlabelled ADMA 100 µM, Arginine / Sucrose uptake, CSF, mean, [3H] Arginine + [14C] Sucrose + 100µM un-labelled ADMA, mean) | Kp at 10 min ([1]; Balb/c, caudate nucleus, other: in situ brain perfusion, with unlabelled ADMA 10 µM, Arginine / Sucrose uptake, caudate nucleus, mean, [3H] Arginine + [14C] Sucrose + 10 uM ADMA, mean) | Kp at 10 min ([1]; Balb/c, cerebellum, other: in situ brain perfusion, with unlabelled ADMA 0.5 µM, cerebellum: [14C] Sucrose, + 0.5 uM ADMA, mean) | Kp at 10 min ([1]; Balb/c, choroid plexus, other: in situ brain perfusion, with 0.5 µM unlabelled ADMA, choroid plexus: [14C] Sucrose, + 0.5 uM ADMA, mean) | Kp at 10 min ([1]; Balb/c, frontal cortex, other: in situ brain perfusion, with unlabelled ADMA 3 µM, Arginine / Sucrose uptake, frontal cortex, [3H] Arginine + [14C] Sucrose + 3 uM ADMA, single mice) | Kp at 10 min ([1]; Balb/c, hypothalamus, other: in situ brain perfusion, with unlabelled ADMA 3 µM, Arginine / Sucrose uptake, hypothalamus, mean, [3H] Arginine + [14C] Sucrose + 3 uM ADMA, mean) | Kp at 10 min ([1]; Balb/c, hypothalamus, other: in situ brain perfusion, with unlabelled ADMA 10 µM, Arginine / Sucrose uptake, hypothalamus, mean, [3H] Arginine + [14C] Sucrose + 10 uM ADMA, mean) | Kp at 10 min ([1]; Balb/c, hypothalamus, other: in situ brain perfusion, with unlabelled ADMA 100 µM, Arginine / Sucrose uptake, hypothalamus, mean, [3H] Arginine + [14C] Sucrose + 100µM un-labelled ADMA, mean) | Kp at 10 min ([1]; Balb/c, pellet (cerebral capillary endothelial cells), other: in situ brain perfusion, with unlabelled ADMA 0.5 µM, pellet: [14C] Sucrose, + 0.5 uM ADMA, mean) | Kp at 10 min ([1]; Balb/c, pineal gland, other: in situ brain perfusion, with unlabelled ADMA 10 µM, Arginine / Sucrose uptake, pineal gland, mean, [3H] Arginine + [14C] Sucrose + 10 uM ADMA, mean) | Kp at 10 min ([1]; Balb/c, pituitary gland, other: in situ brain perfusion, with 0.5 µM unlabelled ADMA, pituitary gland: [14C] Sucrose, + 0.5 uM ADMA, mean) | Kp at 10 min ([1]; Balb/c, pituitary gland, other: in situ brain perfusion, with unlabelled ADMA 3 µM, Arginine / Sucrose uptake, pituitary gland, mean, [3H] Arginine + [14C] Sucrose + 3 uM ADMA, mean) | Kp at 10 min ([1]; Balb/c, pons, other: in situ brain perfusion, with unlabelled ADMA 0.5 µM, pons: [14C] Sucrose, + 0.5 uM ADMA, mean) | Kp at 10 min ([1]; Balb/c, pons, other: in situ brain perfusion, with unlabelled ADMA 3 µM, Arginine / Sucrose uptake, pons, mean, [3H] Arginine + [14C] Sucrose + 3 uM ADMA, mean) | Kp at 10 min ([1]; Balb/c, pons, other: in situ brain perfusion, with unlabelled ADMA 10 µM, Arginine / Sucrose uptake, pons, mean, [3H] Arginine + [14C] Sucrose + 10 uM ADMA, mean) | Kp at 10 min ([1]; Balb/c, thalamus, other: in situ brain perfusion, with unlabelled ADMA 10 µM, Arginine / Sucrose uptake, thalamus, mean, [3H] Arginine + [14C] Sucrose + 10 uM ADMA, mean) | Ki (eNOS) [nM]
1 | OC[C@H]1O[C@@](CO)(O[C@H]2O[C@H](CO)[C@@H](O)[C@H](O)[C@H]2O)[C@@H](O)[C@@H]1O [[^14C]-sucrose, reference compound] | 0.00271 | 0.034 | 0.149 | 0.0357 | 0.0327 | 0.162 | 0.0326 | 0.0456 | 0.074 | 0.0349 | 0.00977 | 0.504 | 0.13 | 0.146 | 0.0597 | 0.0612 | 0.0764 | 0.0352 | 
2 | CN(C)C(N)=NCCC[C@H](N)C(=O)O [ADMA, N^G,N^G-dimethylarginine dihydrochloride] |  |  |  |  |  |  |  |  |  |  |  |  |  |  |  |  |  |  | 900
